Patent US20160175223A1, “ANTI-AGING COMPOSITIONS COMPRISING BILE ACID-FATTY ACID CONJUGATES” (GALDERM THERAPEUTICS LTD., priority 2013, published 2016)

Experiments:
human skin fibroblasts = assay: [3H] cholesterol efflux in skin fibroblasts; format: cell-based; conditions: 20 hours incubation, compared to untreated cells
Procedure: (§1) Steamchol was incubated with human skin fibroblasts for 20 hours to measure cholesterol loading in the presence of [^3H] cholesterol. After series of washing and adding efflux containing cholesterol acceptors, medium was collected and centrifuged and cell associated cholesterol was compared to effluxed cholesterol in the presence and absence of the similar FABAC. This research project also included quantification of mRNA of ABCA1 and direct measurement of ABCA1.
(§2) Similarly, cells were pre-incubated with [^3H] cholesterol, washed four times and then placed in an incubation medium with or without Aramchol for 20 hours. Following the incubation, radioactivity was measured separately in the medium and in the cells. Cholesterol efflux percentage was calculated as radioactivity in medium divided by the total radioactivity (cells+medium).

ABCA1 [1] = assay: Direct measurement of ABCA1 protein in skin fibroblasts; format: cell-based, human; conditions: efflux in the presence of FABAC, compared to untreated cells
Procedure: as §1, §2

ABCA1 [2] = assay: Taqman gene expression in Epiderm FT skin culture: ABCA1 mRNA; format: cell-based, human; conditions: 0.5% (5000 ug/mL) in DMSO, 24 hours post-application, vs DMSO control
Procedure: A full-thickness in vitro skin culture model, Epiderm FT (MatTek, MA), was treated with Steamchol. Steamchol in DMSO (0.5%, 5000 ug/mL) was applied to the surface of each test culture and cells were collected 24 hours post-application. Control cells were similarly treated with DMSO without Steamchol.
Tissues were collected in RNA later for gene expression analysis. Gene expression was analyzed using validated Taqman gene expression assays in Taqman Low Density Array (TLDA) format. 94 genes that regulate a variety of known functions in skin were analyzed including the ABCA1 and SCD1 genes. The experimental set up was conducted in a 96-well format using validated Taqman gene expression assays. Each gene was assayed in duplicates. Statistics were carried out using the StatMiner software v4.2 (unpaired t-tests, p≦0.05, N=4) to compare the Steamchol group to the DMSO control group.

[3] = tested on: Full-thickness Epiderm cultures (EFT-400, MatTek); assay: Cytotoxicity assay (MTT) after topical application to full-thickness skin cultures; format: cell-based; conditions: 24-hour exposure; for Cell Viability: 10 μL topical, MTT, vs untreated control
Procedure: (§3) Full-thickness Epiderm cultures (EFT-400, MatTek) were used to determine toxicity in response to topical application of a test material (Steamchol).
The test material was provided as a powder. Test solutions were prepared by adding the appropriate amount of powdered material to 1 mL DMSO. Lower concentrations were made by serial dilution with 100% DMSO. The final test material concentrations and treatments are listed below: • 2% Steamchol (20,000 ug/mL) • 1% Steamchol (10,000 ug/mL) • 0.1% Steamchol (1000 ug/mL) • 0.01% Steamchol (100 ug/mL) • vehicle control (100% DMSO) • untreated control
Full-thickness skin cultures (EFT-400) were maintained as required to ensure viability; the cultures were equilibrated at 37° C. and 5% CO2 for 24 hours prior to application of test materials. Test material was applied to the surface of each culture using sterile techniques (10 μL applied to each culture). Two cultures were assigned to each treatment group. Two EFT cultures served as an untreated control (also referred to as negative control in FIG. 2), and two other EFT cultures served as a positive control (100 μL 1% Triton X-100).
Following a 24-hour incubation period with the test material, cultures were processed for cell toxicity analysis using an MTT [(3-4,5-dimethylthiazole-2-yl)2,5-diphenyltetrazoliumbromide] assay (reagents purchased from MatTek). Viable tissues converted MTT into a blue formazan salt that was detected by measuring absorbance at a specific wavelength of light (A570). Percent viability was calculated by comparing the A570 reading of the test cultures to the A570 of the untreated control culture, using the following formula: [Treated A570/Untreated A570]*100.

[4] = tested on: Full-thickness Epiderm cultures (EFT-400, MatTek); assay: Previous viability assay; format: cell-based; conditions: concentrations of 40.0, 13.3, 4.4, 1.5 ug/mL
Text: as §3

| SMILES | Cholesterol efflux in fibroblasts (human skin fibroblasts) | ABCA1 protein concentration increase (ABCA1 [1]) | Change in mRNA levels of ABCA1 (ABCA1 [2]) | Cell Viability ([3]; 0.01% Steamchol (100 ug/mL) in DMSO) | Cell Viability ([3]; 0.1% Steamchol (1000 ug/mL) in DMSO) | Cell Viability ([3]; 1% Steamchol (10,000 ug/mL) in DMSO) | Cell Viability ([3]; 2% Steamchol (20,000 ug/mL) in DMSO) | Cell viability compared to the untreated control ([3]; all dilutions tested (0.01%-2% in DMSO)) | Toxicity in viability assay [4] |
| --- | --- | --- | --- | --- | --- | --- | --- | --- | --- |
| CCCCCCCCCCCCCCCCCCCC(=O)N[C@H]1CC[C@@]2(C)[C@@H](C1)C[C@@H](O)[C@@H]1[C@@H]2C[C@H](O)[C@]2(C)[C@@H]([C@H](C)CCC(=O)O)CC[C@@H]12 [Aramchol, 3β-arachidylamido-7α,12α, dihidroxy-5β-cholan-24-oic acid] | significantly enhanced | approximately 2 fold |  |  |  |  |  |  |  |
| CCCCCCCCCCCCCCCCCC(=O)N[C@H]1CC[C@@]2(C)[C@@H](C1)C[C@@H](O)[C@@H]1[C@@H]2C[C@H](O)[C@]2(C)[C@@H]([C@H](C)CCC(=O)O)CC[C@@H]12 [Steamchol, 3β-stearylamido-7α,12α, dihidroxy-5β-cholan-24-oic acid] | significantly enhanced | approximately 2 fold | No significant change | 100.41% | 99.98% | 96.88% | 93.89% | ~100% | no toxicity was observed |
